Test results from the CheMixHub viscosity set.
Values joined by “and” are separate entries in the source; they are usually repeats but may differ in a detail not shown here. Equal values may be shown once.

CC(C)C[P+](C)(CC(C)C)CC(C)C.Cc1ccc(S(=O)(=O)[O-])cc1
Conditions	viscosity [mPa·s]
293.15 K, 101 kPa	1320

CCCCn1cc[n+](C)c1.O=S(=O)([O-])C(F)(F)F
viscosity
Conditions	293.15 K	298.15 K	303.15 K	308.15 K	313.15 K	318.15 K	323.15 K
100 kPa	90.81 mPa·s and 102 mPa·s	76.01 mPa·s and 87.96 mPa·s and 80.1 mPa·s	63.6 mPa·s and 64.02 mPa·s	56.43 mPa·s and 52.18 mPa·s	42.11 mPa·s and 42.76 mPa·s	38.31 mPa·s and 35.66 mPa·s	30.02 mPa·s and 30.01 mPa·s
101 kPa	–	59.8 mPa·s	–	–	–	–	29.55 mPa·s

CC1COC(=O)O1 (stereo not given)
viscosity
Conditions	293.15 K	298.15 K	303.15 K	308.15 K	313.15 K	318.15 K	323.15 K
99.7 kPa	–	–	2.212 mPa·s	–	1.998 mPa·s	–	1.766 mPa·s
100 kPa	–	2.53 mPa·s	–	–	–	–	–
101 kPa	2.938 mPa·s and 2.738 mPa·s and 2.72 mPa·s	2.531 mPa·s and 2.468 mPa·s and 2.51 mPa·s	2.24 mPa·s and 2.3 mPa·s and 2.29 mPa·s	–	–	1.654 mPa·s and 1.724 mPa·s and 1.85 mPa·s	1.538 mPa·s and 1.595 mPa·s
101.3 kPa	2.746 mPa·s and 2.763 mPa·s and 2.762 mPa·s	–	2.246 mPa·s and 2.3 mPa·s and 2.149 mPa·s	2.049 mPa·s and 2.046 mPa·s	1.879 mPa·s and 1.902 mPa·s	1.73 mPa·s and 1.755 mPa·s and 1.703 mPa·s	1.6 mPa·s
101.33 kPa	2.721 mPa·s	–	2.237 mPa·s	–	1.863 mPa·s	–	–

CCCC(=O)[O-].OCC[NH2+]CCO
101.3 kPa
Conditions	viscosity [mPa·s]
293.15 K	1832
298.15 K	1226
303.15 K	839.8
308.15 K	588.7
313.15 K	421.1
318.15 K	307.1
323.15 K	227.9

Brc1ccc2[n-]cnc2c1.CCCCCCCCCCCCCC[P+](CCCCCC)(CCCCCC)CCCCCC
100 kPa
Conditions	viscosity [mPa·s]
293.15 K	1910
298.15 K	1270
303.15 K	872
308.15 K	613
313.15 K	441
318.15 K	325
323.15 K	246

CC(C)=O
Conditions	viscosity
293.15 K, 100 kPa	0.3276 mPa·s and 0.3276 mPa·s
293.15 K, 101.32 kPa	0.318 mPa·s
293.15 K, 101.33 kPa	0.337 mPa·s and 0.321 mPa·s
293.16 K, 101 kPa	0.326 mPa·s
293.2 K, 101 kPa	0.323 mPa·s
294.15 K, 101 kPa	0.362 mPa·s
296 K, 101.3 kPa	0.311 mPa·s
298.15 K, 100 kPa	0.3186 mPa·s and 0.3186 mPa·s
298.15 K, 101.3 kPa	0.316 mPa·s
298.15 K, 101.33 kPa	0.3013 mPa·s and 0.3049 mPa·s and 0.307 mPa·s
298.16 K, 101 kPa	0.316 mPa·s
302.4 K, 101 kPa	0.5915 mPa·s
302.95 K, 101 kPa	0.295 mPa·s
303.05 K, 101 kPa	0.335 mPa·s
303.15 K, 100 kPa	0.3091 mPa·s and 0.3091 mPa·s and 0.303 mPa·s
303.15 K, 101.33 kPa	0.295 mPa·s and 0.298 mPa·s and 0.339 mPa·s
303.16 K, 101 kPa	0.295 mPa·s
303.95 K, 101 kPa	0.3366 mPa·s
307.35 K, 101.33 kPa	0.29 mPa·s
308.15 K, 100 kPa	0.2992 mPa·s and 0.2992 mPa·s
311.35 K, 101 kPa	0.3166 mPa·s
313.15 K, 100 kPa	0.289 mPa·s and 0.289 mPa·s and 0.276 mPa·s
313.15 K, 101.33 kPa	0.3089 mPa·s
313.25 K, 101 kPa	0.27 mPa·s
318.15 K, 100 kPa	0.2784 mPa·s and 0.2784 mPa·s
318.15 K, 101 kPa	0.279 mPa·s and 0.2649 mPa·s
318.15 K, 101.32 kPa	0.2496 mPa·s
322.95 K, 101 kPa	0.248 mPa·s
323.15 K, 100 kPa	0.2673 mPa·s and 0.2673 mPa·s and 0.255 mPa·s
323.15 K, 101.33 kPa	0.2871 mPa·s

C1CCOC1
Conditions	viscosity
293.15 K, 101.33 kPa	0.48 mPa·s
298 K, 101 kPa	0.4608 mPa·s
298 K, 101.33 kPa	0.461 mPa·s
298.15 K, 101.33 kPa	0.53 mPa·s and 0.481 mPa·s and 0.472 mPa·s
303 K, 101 kPa	0.42 mPa·s and 0.42 mPa·s
303 K, 101.3 kPa	0.422 mPa·s
303.15 K, 101.32 kPa	0.449 mPa·s
303.15 K, 101.33 kPa	0.4496 mPa·s and 0.45 mPa·s and 0.45 mPa·s
308 K, 101.33 kPa	0.42 mPa·s
313 K, 101 kPa	0.39 mPa·s and 0.39 mPa·s
313 K, 101.3 kPa	0.402 mPa·s
313.15 K, 100 kPa	0.39 mPa·s
313.15 K, 101.33 kPa	0.4066 mPa·s
323.15 K, 101.33 kPa	0.3696 mPa·s

CCCc1ccccc1
Conditions	viscosity [mPa·s]
303.15 K, 101 kPa	0.7591
303.15 K, 101.3 kPa	0.75
308.15 K, 101.33 kPa	0.7001
313.15 K, 102 kPa	0.649
323.15 K, 102 kPa	0.573

Cc1ccccc1
Conditions	viscosity
293.15 K, 100 kPa	0.598 mPa·s
293.15 K, 101.2 kPa	0.6003 mPa·s
293.15 K, 101.32 kPa	0.5859 mPa·s
293.15 K, 101.33 kPa	0.592 mPa·s
295.85 K, 101.33 kPa	0.5984 mPa·s
298 K, 101.33 kPa	0.546 mPa·s
298.15 K, 100 kPa	0.551 mPa·s
298.15 K, 101.33 kPa	0.506 mPa·s
302.4 K, 101 kPa	0.9538 mPa·s
303 K, 100 kPa	0.5268 mPa·s
303 K, 101.33 kPa	0.514 mPa·s and 0.515 mPa·s
303.15 K, 100 kPa	0.539 mPa·s
303.15 K, 101.2 kPa	0.5357 mPa·s
303.15 K, 101.3 kPa	0.5272 mPa·s
305.45 K, 101.33 kPa	0.5375 mPa·s
308 K, 100 kPa	0.4984 mPa·s
308.15 K, 100 kPa	0.498 mPa·s
308.15 K, 101.2 kPa	0.5069 mPa·s
308.15 K, 101.3 kPa	0.492 mPa·s and 0.4981 mPa·s and 0.503 mPa·s
308.5 K, 101 kPa	0.512 mPa·s
312.65 K, 101.33 kPa	0.4982 mPa·s
313 K, 100 kPa	0.4811 mPa·s
313 K, 101.33 kPa	0.463 mPa·s and 0.461 mPa·s
313.15 K, 100 kPa	0.495 mPa·s
313.15 K, 101 kPa	0.4601 mPa·s and 0.4804 mPa·s and 0.559 mPa·s
313.15 K, 101.2 kPa	0.4807 mPa·s
313.15 K, 101.33 kPa	0.478 mPa·s and 0.478 mPa·s and 0.481 mPa·s
318.15 K, 100 kPa	0.44 mPa·s
318.15 K, 101.2 kPa	0.4571 mPa·s
318.15 K, 101.32 kPa	0.4428 mPa·s
318.15 K, 101.33 kPa	0.458 mPa·s
322.65 K, 101.33 kPa	0.45 mPa·s
323 K, 101.33 kPa	0.413 mPa·s and 0.418 mPa·s
323.15 K, 101 kPa	0.4435 mPa·s and 0.418 mPa·s and 0.4321 mPa·s
